From the METLIN SMRT retention time set (Domingo-Almenara et al. 2019)

Assay: gradient 5% acetonitrile 3 min, to 50% in 2 min, to 85% in 15 min, held 3 min, 100 µL/min
Conditions: column: Zorbax Extend-C18 2.1 x 50 mm; eluents: water / acetonitrile, 0.1% formic acid
How it was run: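 Mixtures of ~100 pure standards were chromatographed on a Zorbax Extend-C18 column (2.1 × 50 mm, 1.8 μm) at 100 μL/min using water and acetonitrile, each with 0.1% formic acid. Detection used a quadrupole time-of-flight mass spectrometer in positive and negative ionization mode, and data collection spanned 3 months. Retention time was obtained from adduct peaks picked computationally and each checked manually.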

SMILES | RP-LC retention time [s]
O=C(Cn1cccc(-c2nc(-c3ccc(Cl)cc3)no2)c1=O)Nc1ccc(F)cc1F | 971
CCC(=O)N1CCN(c2nc3c(s2)CC(C(=O)Nc2cc(F)ccc2F)CC3)CC1 (configuration not stated) | 633
Cc1c(Cl)cccc1NC(=O)N1CCc2nc(-c3ccc(F)cc3)ncc2C1 | 996
CCCN1C(=O)COc2cc(-c3noc(C(=O)N4CCN(c5ccc(Cl)cc5)CC4)n3)ccc21 | 1190
O=C(c1cn(-c2cc(N3CCOCC3)ncn2)cn1)N1CCSCC1 | 685
CNC(=O)c1c2c(nc3ccc(F)cc13)CCCC2 | 571
COc1ccccc1-c1noc(C2CCCN2C(=O)Nc2ccc(F)cc2)n1 (configuration not stated) | 842
COCCNCc1c(C(=O)O)c(C)n(Cc2ccc(Cl)cc2)c1C | 704
CC(C)c1ccc(NC(=O)C(=O)NC2CC(C)(C)NC(C)(C)C2)cc1 | 712
CN1CCC([C@@H]2CN(S(=O)(=O)c3ccc(Cl)s3)C[C@H]2C(N)=O)CC1 | 573
O=C(Nc1ccc(-c2ccn[nH]2)cc1)c1cccnc1 | 678
CN1CCC(Oc2ncccc2NS(=O)(=O)N(C)C)CC1 | 575
O=C(Cc1ccc(NC(=O)c2ccc(F)c(F)c2)cc1)NC1CC1 | 686
O=C(c1ccc(-c2cccs2)nc1)N1CCCCC1 | 813
Cc1sc(-c2cc(C(F)(F)F)on2)cc1S(=O)(=O)Nc1ccc(F)cc1 | 1120
CCNS(=O)(=O)c1cccnc1Nc1cccc(C)c1 | 998
O=C(NCCC1=CCCCC1)C1CCCN(C(=O)Cc2cccc3ccccc23)C1 (configuration not stated) | 1030
Cc1ccc(-c2ccc(N3CCN(c4ccccn4)CC3)nn2)cc1S(=O)(=O)N1CCCC1 | 656
O=C(c1cccc(F)c1)N1CCN(C(=O)c2nsc3ccccc23)CC1 | 760
CCOC(=O)c1noc2ncnc(NCc3cccc(Cl)c3)c12 | 1040
CC(C)c1noc(C2(NC(=O)c3cccc(Cl)c3)CCCCC2)n1 | 1130
CN1CCN(c2ncc3c(n2)CC(c2ccc(Cl)cc2)CC3=O)CC1 (configuration not stated) | 674
COc1ccc(-c2ncc(NC(=O)C(C)C)cn2)cc1 | 802
Cc1ccc(NC(=O)Nc2cnn(-c3ncc(N4CCCC4)cn3)c2)c(Cl)c1 | 844
CCc1nc2cc(N3CCC(C(=O)N(CC)CC)CC3)cnc2nc1CC | 712

The remaining lines, values ahead:

RP-LC retention time [s] | SMILES
690 | Cc1c(F)cccc1NC(=O)N1CCC(c2cc(=O)n3nccc3n2C)CC1
928 | O=C(NCCc1c[nH]c2ccc(Cl)cc12)c1cccc(NC(=O)c2nnc(C3CC3)s2)c1
1180 | CCn1cc(-c2nc(C(=O)Nc3cc(F)cc(F)c3)cs2)c2cccnc21
969 | O=C(NCCc1ccc(Cl)cc1)c1nc(Cn2c(=O)oc3ccccc32)no1
1030 | COc1cccc(-c2noc(Cn3c(=O)n(-c4ccc(C)cc4)c(=O)c4sccc43)n2)c1
487 | CC(=O)NCC(=O)N1CCCn2cc(-c3ccc4c(c3)OCO4)nc21
817 | CC1CCCN(S(=O)(=O)c2ccc(-n3cnc(C(=O)N4CCCC4)c3)nc2)C1 (configuration not stated)
643 | CCCN1CCN(C(=O)c2ccc3ccnc(N4CCN(c5ccc(Cl)cc5)CC4)c3c2)CC1
956 | O=C(NCC1OCCc2ccccc21)C(=O)Nc1ccccc1 (configuration not stated)
649 | CSc1ncccc1-c1nc(-c2ccc3c(c2)ncn3CCN2CCCCC2)no1
864 | CCOC(=O)c1ccc(NC(=O)COc2cc(C)nc(N3CCN(c4ccccc4)CC3)n2)cc1
887 | O=C(O)C(Cc1ccccc1)NS(=O)(=O)c1ccc(Cl)c(C(F)(F)F)c1 (configuration not stated)
